Series [1] can be described thus: Turbidity of crude library peptides (absorbance at 600 nm). In kind it is physicochemical. As to conditions: Physical stability of peptides. Summed up: (§1)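 Turbidity is the absorbance at 600 nm, taken before heating. Fibril signal is the mean ThT emission at 480 nm (450 nm excitation), read every 10 min over 72 h at 40° C with 700 rpm shaking between reads. Peptides at 267 μM, pH 4.0 acetate or pH 7.0 phosphate buffer (50 mM), 4 μM ThT final.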

Series [2] can be described thus: Fibril formation of crude library peptides (Thioflavin T). In kind it is physicochemical. Set-up: key: average ThT fluorescence emission at 480 nm (ex 450 nm), raw units. As to conditions: Physical stability of peptides. Summed up:
as §1

A further series has as its target GLP1R (Homo sapiens, UniProt P43220). As to the kind of experiment: hGLP1R potency, cAMP accumulation in CHO-K1 cells stably overexpressing hGLP1R. In kind it is cell-based. Set-up: host or cells: CHO-K1. To be noted: for EC50: cAMP accumulation; for SCTR EC50/GLP1R EC50 ratio: cAMP accumulation in CHO-K1 cells; for Selectivity: SCTR EC50/GLP1R EC50 ratio. Summed up:
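2000 cells/well, DPBS + 0.05% casein + 0.5 mM IBMX; 30 min RT stimulation; HTRF cAMP detection after 1 h. Purified: 3-fold ×11, n=2; crude: 10-fold ×5, n=1. EC50 by variable-slope fit.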
Background: cAMP levels reflect the balance of adenylyl cyclase and phosphodiesterase activity.

The next series deals with SCTR (Homo sapiens, UniProt P47872). Description: hSCTR potency, cAMP accumulation in CHO-K1 cells stably overexpressing hSCTR. The format is cell-based. To be noted: cAMP accumulation. Set-up: alternatively Euroscreen ES-712-AF; FAST-0161L; host or cells: CHO-K1. Summed up: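 Thawed CHO-K1 cells carrying stable hSCTR are plated into casein/IBMX buffer (0.05%, 0.5 mM), dosed immediately for 30 min at room temperature, then cAMP is detected by TR-FRET. Purified peptides run as 11 three-fold dilutions in duplicate, and curves are fitted with variable slope.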

The mark [3] stands for this setting: CHO-K1 cells overexpressing hGLP1R, read-out: pEC50 hGLPR1 (converted).
The mark [4] stands for this setting: CHO-K1 cells overexpressing hSCTR, read-out: pEC50 hSCTR (converted).

Read-outs that look alike come from different tables or passages of the source. Numbered stars: 1 amine (or outer) side, 2 acyl side, 3 side chain; on linkers, the order of the positions; unused ones are H or OH. Square brackets hold non-standard residues; d marks the D form. Side chains are listed from the residue outwards. Peptide text beside a SMILES is read from it. * marks the point of attachment. C20 diacid = O=C(O)CCCCCCCCCCCCCCCCCCC(=O)*; γGlu = O=C(O)[C@H](CCC(=O)[*:2])N[*:1]; AEEA = NCCOCCOCC(=O)O; Aib = CC(C)(N)C(=O)O

Chain of SCTR (P47872 23-440): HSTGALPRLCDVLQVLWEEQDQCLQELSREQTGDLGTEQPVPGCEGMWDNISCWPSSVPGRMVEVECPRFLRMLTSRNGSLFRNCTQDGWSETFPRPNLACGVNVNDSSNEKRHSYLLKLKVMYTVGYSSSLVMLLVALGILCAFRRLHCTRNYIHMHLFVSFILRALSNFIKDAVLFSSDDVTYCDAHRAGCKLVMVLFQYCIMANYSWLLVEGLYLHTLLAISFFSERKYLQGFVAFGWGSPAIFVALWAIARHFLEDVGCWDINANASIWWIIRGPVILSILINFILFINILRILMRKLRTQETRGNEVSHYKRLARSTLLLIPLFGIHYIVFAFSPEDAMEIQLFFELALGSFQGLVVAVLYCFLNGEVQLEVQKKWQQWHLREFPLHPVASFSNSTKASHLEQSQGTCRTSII
Chain of GLP1R (P43220 24-463): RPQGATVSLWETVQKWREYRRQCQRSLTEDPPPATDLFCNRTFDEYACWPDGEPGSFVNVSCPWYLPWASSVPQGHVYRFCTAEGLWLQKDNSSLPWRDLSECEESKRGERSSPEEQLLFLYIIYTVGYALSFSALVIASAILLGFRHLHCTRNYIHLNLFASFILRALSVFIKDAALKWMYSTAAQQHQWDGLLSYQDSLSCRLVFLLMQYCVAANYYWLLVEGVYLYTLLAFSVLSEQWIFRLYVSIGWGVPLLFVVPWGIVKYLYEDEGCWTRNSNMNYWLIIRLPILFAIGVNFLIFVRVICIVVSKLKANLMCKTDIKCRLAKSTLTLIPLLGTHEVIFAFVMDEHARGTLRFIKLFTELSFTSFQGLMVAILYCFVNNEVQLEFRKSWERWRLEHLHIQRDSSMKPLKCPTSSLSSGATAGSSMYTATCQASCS

Take `CC[C@H](C)[C@H](NC(=O)[C@H](Cc1ccccc1)NC(=O)[C@H](CCCNC(=N)N)NC(=O)[C@H](CCC(N)=O)NC(=O)[C@H](CC(C)C)NC(=O)[C@H](C)NC(=O)[C@H](C)NC(=O)CNC(=O)[C@H](CCC(=O)O)NC(=O)[C@H](CC(C)C)NC(=O)[C@H](CC(C)C)NC(=O)[C@H](Cc1ccccc1)NC(=O)[C@H](CO)NC(=O)[C@@H](NC(=O)[C@H](CC(=O)O)NC(=O)[C@H](CO)NC(=O)[C@@H](NC(=O)[C@H](Cc1ccccc1)NC(=O)[C@@H](NC(=O)CNC(=O)[C@H](CCC(=O)O)NC(=O)C(C)(C)NC(=O)[C@@H](N)Cc1c[nH]cn1)[C@@H](C)O)[C@@H](C)O)C(C)C)C(=O)N[C@@H](CCC(N)=O)C(=O)N[C@@H](Cc1c[nH]c2ccccc12)C(=O)N[C@@H](CC(C)C)C(=O)N[C@H](C(N)=O)C(C)C` [compound 177] (H-H[Aib]EGTFTSDVSFLLEGAALQRFIQWLV-NH2): in series [1], the “Turbidity (pH 7)” value is on record as 0.53. This compound registered a Fibril formation in series [2] of 260000. Moreover, the EC50 is 0.0158 nM on GLP1R (CHO-K1 cells overexpressing hGLP1R, read-out: hGLP1R pEC50 (converted)) and 501 nM at SCTR (CHO-K1 cells overexpressing hSCTR, read-out: hSCTR pEC50 (converted)). In addition, on GLP1R (selectivity for hGLP1R over hSCTR), the “SCTR EC50/GLP1R EC50 ratio” value came out at 30839.
Turning to `CC(C)C[C@H](NC(=O)[C@H](Cc1ccccc1)NC(=O)[C@H](CCCNC(=N)N)NC(=O)[C@H](CCC(N)=O)NC(=O)C(C)(C)NC(=O)[C@H](C)NC(=O)[C@H](C)NC(=O)[C@@H](NC(=O)[C@H](CCC(=O)O)NC(=O)[C@H](CCCCNC(=O)COCCOCCNC(=O)COCCOCCNC(=O)CC[C@H](NC(=O)CCCCCCCCCCCCCCCCCCC(=O)O)C(=O)O)NC(=O)[C@H](CC(C)C)NC(=O)[C@H](Cc1ccccc1)NC(=O)[C@H](CO)NC(=O)[C@@H](NC(=O)[C@H](CC(=O)O)NC(=O)[C@H](CO)NC(=O)[C@@H](NC(=O)[C@H](Cc1ccccc1)NC(=O)[C@@H](NC(=O)CNC(=O)[C@H](CCC(=O)O)NC(=O)C(C)(C)NC(=O)[C@@H](N)Cc1c[nH]cn1)[C@@H](C)O)[C@@H](C)O)C(C)C)[C@@H](C)O)C(=O)N[C@@H](CCC(=O)O)C(=O)N[C@@H](Cc1c[nH]cn1)C(=O)N[C@@H](CC(C)C)C(=O)N[C@H](C(N)=O)C(C)C` [compound 25] (H-H[Aib]EGTFTSDVSFLK([AEEA-AEEA-γGlu-C20 diacid])ETAA[Aib]QRFLEHLV-NH2), the “Turbidity (pH 7)” value in series [1] worked out at 0.08. In addition, the Fibril formation in series [2] is given as 8584. For the same compound, on GLP1R, the Selectivity was 8268. The values for the EC50 at GLP1R (setting [3]) and on SCTR (setting [4]) were 1 nM and 7940 nM, respectively.
For `CC(C)C[C@H](NC(=O)[C@H](Cc1ccccc1)NC(=O)[C@H](CCCNC(=N)N)NC(=O)[C@H](CCC(N)=O)NC(=O)[C@H](C)NC(=O)[C@H](C)NC(=O)[C@H](C)NC(=O)[C@H](Cc1ccccc1)NC(=O)[C@H](CCC(=O)O)NC(=O)[C@H](CCCCNC(=O)COCCOCCNC(=O)COCCOCCNC(=O)CC[C@H](NC(=O)CCCCCCCCCCCCCCCCCCC(=O)O)C(=O)O)NC(=O)[C@H](CC(C)C)NC(=O)[C@H](CCCNC(=N)N)NC(=O)[C@H](CO)NC(=O)[C@@H](NC(=O)[C@H](CC(=O)O)NC(=O)[C@H](CO)NC(=O)[C@@H](NC(=O)[C@H](Cc1ccccc1)NC(=O)[C@@H](NC(=O)CNC(=O)[C@H](CCC(=O)O)NC(=O)C(C)(C)NC(=O)[C@@H](N)Cc1c[nH]cn1)[C@@H](C)O)[C@@H](C)O)C(C)C)C(=O)N[C@@H](CCC(=O)O)C(=O)N[C@@H](Cc1c[nH]cn1)C(=O)N[C@@H](CC(C)C)C(=O)N[C@H](C(N)=O)C(C)C` [compound 2] (H-H[Aib]EGTFTSDVSRLK([AEEA-AEEA-γGlu-C20 diacid])EFAAAQRFLEHLV-NH2), the “Turbidity (pH 7)” value in series [1] came out at 0.08. The Fibril formation in series [2] is reported as 89647. On GLP1R, the Selectivity was determined as 6431. Further, the EC50 at GLP1R (setting [3]) is 0.0794 nM; on SCTR (setting [4]), 501 nM.
Turning to `CC(C)C[C@H](NC(=O)[C@H](Cc1ccc(O)cc1)NC(=O)[C@H](CO)NC(=O)[C@H](Cc1ccc(O)cc1)NC(=O)[C@H](CC(=O)O)NC(=O)[C@H](CO)NC(=O)[C@@H](NC(=O)[C@H](Cc1ccccc1)NC(=O)[C@@H](NC(=O)CNC(=O)[C@H](CCC(=O)O)NC(=O)C(C)(C)NC(=O)[C@@H](N)Cc1c[nH]cn1)[C@@H](C)O)[C@@H](C)O)C(=O)N[C@@H](CCCCNC(=O)COCCOCCNC(=O)COCCOCCNC(=O)CC[C@H](NC(=O)CCCCCCCCCCCCCCCCCCC(=O)O)C(=O)O)C(=O)N[C@@H](CCC(=O)O)C(=O)N[C@@H](CCC(=O)O)C(=O)N[C@@H](C)C(=O)NC(C)(C)C(=O)N[C@@H](CC(C)C)C(=O)N[C@@H](CCC(N)=O)C(=O)N[C@@H](CCCNC(=N)N)C(=O)N[C@@H](Cc1ccccc1)C(=O)N[C@@H](CC(C)C)C(=O)N[C@@H](CCC(=O)O)C(=O)N[C@@H](Cc1c[nH]cn1)C(=O)N[C@@H](CC(C)C)C(=O)N[C@H](C(N)=O)C(C)C` [compound 196] (H-H[Aib]EGTFTSDYSYLK([AEEA-AEEA-γGlu-C20 diacid])EEA[Aib]LQRFLEHLV-NH2), the “Turbidity (pH 7)” value in series [1] came to 0.08. Further, the Fibril formation in series [2] was 5187. Also, the EC50 at GLP1R (CHO-K1 cells stably overexpressing hGLP1R, read-out: hGLP1R potency (pEC50) (converted)) is 0.0126 nM; at SCTR (CHO-K1 cells stably overexpressing hSCTR, read-out: hSCTR potency (pEC50) (converted)), 20 nM. The “SCTR EC50/GLP1R EC50 ratio” value on GLP1R (selectivity ratio, hSCTR vs hGLP1R) is 1743.
For the compound `CC(C)C[C@H](NC(=O)[C@H](Cc1ccccc1)NC(=O)[C@H](CCCNC(=N)N)NC(=O)[C@H](CCC(N)=O)NC(=O)[C@H](C)NC(=O)[C@H](C)NC(=O)[C@H](C)NC(=O)[C@H](Cc1ccccc1)NC(=O)[C@H](CCC(=O)O)NC(=O)[C@H](CCCCNC(=O)COCCOCCNC(=O)COCCOCCNC(=O)CC[C@H](NC(=O)CCCCCCCCCCCCCCCCCCC(=O)O)C(=O)O)NC(=O)[C@H](CC(C)C)NC(=O)[C@@H](NC(=O)[C@H](CO)NC(=O)[C@@H](NC(=O)[C@H](CC(=O)O)NC(=O)[C@H](CO)NC(=O)[C@@H](NC(=O)[C@H](Cc1ccccc1)NC(=O)[C@@H](NC(=O)CNC(=O)[C@H](CCC(=O)O)NC(=O)C(C)(C)NC(=O)[C@@H](N)Cc1c[nH]cn1)[C@@H](C)O)[C@@H](C)O)C(C)C)C(C)C)C(=O)N[C@@H](CCC(=O)O)C(=O)N[C@@H](Cc1c[nH]cn1)C(=O)N[C@@H](CC(C)C)C(=O)N[C@H](C(N)=O)C(C)C` [compound 29] (H-H[Aib]EGTFTSDVSVLK([AEEA-AEEA-γGlu-C20 diacid])EFAAAQRFLEHLV-NH2), the “Turbidity (pH 7)” value in series [1] stood at 0.08. For the same compound, the Fibril formation in series [2] is on record as 28786. The Selectivity on GLP1R came out at 8541. Besides, the EC50 on GLP1R (setting [3]) was 0.1 nM; on SCTR (setting [4]), 794 nM.
On the same counts, the results for `CC(C)C[C@H](NC(=O)[C@H](CCC(=O)O)NC(=O)[C@H](CCCCNC(=O)COCCOCCNC(=O)COCCOCCNC(=O)CC[C@H](NC(=O)CCCCCCCCCCCCCCCCCCC(=O)O)C(=O)O)NC(=O)[C@H](CC(C)C)NC(=O)[C@@H](NC(=O)[C@H](CO)NC(=O)[C@@H](NC(=O)[C@H](CC(=O)O)NC(=O)[C@H](CO)NC(=O)[C@@H](NC(=O)[C@H](Cc1ccccc1)NC(=O)[C@@H](NC(=O)CNC(=O)[C@H](CCC(=O)O)NC(=O)C(C)(C)NC(=O)[C@@H](N)Cc1c[nH]cn1)[C@@H](C)O)[C@@H](C)O)C(C)C)[C@@H](C)O)C(=O)N[C@@H](C)C(=O)N[C@@H](C)C(=O)N[C@@H](CCC(=O)O)C(=O)N[C@@H](CCC(N)=O)C(=O)N[C@@H](CCCNC(=N)N)C(=O)N[C@@H](Cc1ccccc1)C(=O)N[C@@H](CC(C)C)C(=O)N[C@@H](CCC(=O)O)C(=O)N[C@@H](Cc1c[nH]cn1)C(=O)N[C@@H](CC(C)C)C(=O)N[C@H](C(N)=O)C(C)C` [compound 78] (H-H[Aib]EGTFTSDVSTLK([AEEA-AEEA-γGlu-C20 diacid])ELAAEQRFLEHLV-NH2) are 0.08, 8551, 72127, 0.0501 nM and 3980 nM.

Source of the values: patent US20260201008A1, “SECRETIN-DERIVED GLP1R SELECTIVE AGONISTS” (GUBRA A/S, priority 2023, published 2026).
